Data from US10849915B2, “Methods for treating inflammatory bowel disease using prostate specific membrane antigen (PSMA) inhibitors” (The Johns Hopkins University, priority 2014, dated 2020).

Assays:
DSS-induced colitis = experiment: DSS-induced murine model of colitis; format: in vivo, mice (C57/B6)
Excerpt: DSS-induced colitis model was generated as described previously (Alex et al., 2009; Alex et al., 2010). […] The fact that mutations in either IL-10 or IL-10 receptors in human lead to spontaneous Crohn's disease at very early age (usually less than 1 year old) (Glocker et al., 2011), further emphasize the critical role of IL-10 signaling pathway in its anti-inflammatory and immune-modulatory effects in the gut and the homeostasis of healthy gut.

PSMA = target: T1, PSMA (Mus musculus, UniProt O35409); experiment: GCPII (PSMA) ex vivo activity assay on mucosa extract of DSS colitis mice; format: biochemical; details: DSS-treated mice, extract from mucosa; FIG. 4
T1 construct: from tissue; host or cells: colonic or cecal mucosa of C57/B6 mice with DSS-induced colitis (sonicated tissue lysate supernatant)
T1 sequence (O35409 whole entry): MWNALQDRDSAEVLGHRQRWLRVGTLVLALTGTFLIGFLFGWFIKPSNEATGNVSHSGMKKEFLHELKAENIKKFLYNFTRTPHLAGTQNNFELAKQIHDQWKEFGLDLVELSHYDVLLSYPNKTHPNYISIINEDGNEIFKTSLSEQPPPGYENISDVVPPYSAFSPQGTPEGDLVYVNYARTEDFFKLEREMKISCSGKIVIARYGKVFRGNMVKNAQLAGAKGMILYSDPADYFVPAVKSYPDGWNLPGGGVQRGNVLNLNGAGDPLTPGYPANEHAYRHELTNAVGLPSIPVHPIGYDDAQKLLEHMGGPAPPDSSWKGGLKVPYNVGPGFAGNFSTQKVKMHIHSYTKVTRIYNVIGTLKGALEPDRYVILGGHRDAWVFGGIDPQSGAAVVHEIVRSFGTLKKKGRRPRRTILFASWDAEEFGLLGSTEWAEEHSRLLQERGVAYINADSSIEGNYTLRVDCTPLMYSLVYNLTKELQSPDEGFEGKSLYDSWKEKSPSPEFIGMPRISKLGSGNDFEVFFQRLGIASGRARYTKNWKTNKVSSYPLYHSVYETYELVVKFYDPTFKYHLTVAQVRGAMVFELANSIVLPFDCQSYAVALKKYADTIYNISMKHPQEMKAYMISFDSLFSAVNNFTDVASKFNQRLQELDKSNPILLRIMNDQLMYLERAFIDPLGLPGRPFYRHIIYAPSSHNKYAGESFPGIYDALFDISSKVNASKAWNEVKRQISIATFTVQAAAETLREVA
Protocol: On the day of the ex vivo experiment, the tissues were weighed and immersed in 0.5 ml of ice-cold 50 mM Tris Buffer (pH 7.7 at RT). While on ice, each tissue was sonicated for 30-60 seconds (medium output, 60) via use of a Kontes Ultrasonic Cell Disrupter. After a 2 min spin at 13,000 rpm, supernatants were analyzed for protein content (Dc Protein Assay Kit; Bio Rad). NAAG-hydrolyzing activity measurements were carried out, based on published procedures Robinson et al., 1987; Rojas et al., 2002). Briefly, the reaction mixture (total volume of 50 μL) contained NAA[3H]G (70 nM, 50 Ci/mmol) and tissue lysates (7 concentrations each, tested in quadruplicate), in Tris-HCl (pH 7.4, 40 mM) containing 1 mM CoCl2. Assay standards were comprised of human recombinant GCPII enzyme (40-200 pM, final). The reaction was carried out at 37° C. for 40-45 min and stopped with ice-cold sodium phosphate buffer (pH 7.4, 0.1 M, 50 μL). Blanks were obtained by incubating the reaction mixture in the absence of enzyme source. A 90 μL aliquot from each terminated reaction was transferred to a well in a 96-well spin column containing AG1X8 ion-exchange resin; the plate was centrifuged at 1500 rpm for 5 min using a Beckman GS-6R centrifuge equipped with a PTS-2000 rotor. […] The radioactivity corresponding to [3H]-G was determined with a scintillation counter (Topcount NXT, Packard, counting efficiency 80%). […]

[1] = tested on: spontaneous colitis in IL-10 KO mice; experiment: IL-10 knockout mice with spontaneous colitis; format: in vivo, mice (C57/B6)
[2] = 2-PMPA 100 mg/kg i.p., daily for 8 days, DSS mice, 2 h after dosing on day 8
Protocol: Blood and colonic mucosa were collected for drug PK analysis. Plasma was generated from blood by centrifugation and all samples were stored at −80° C. until further analysis. Concentrations of inhibitors in plasma and tissue were determined via LC/MS/MS as described previously (Rais et al., 2013). Briefly, 2-PMPA was extracted from plasma and tissue by protein precipitation with 5× methanol containing 2-(phosphonomethyl) succinic acid (2-PMSA; 1 μM) as an internal standard. The samples were vortexed (30 s) and centrifuged (10,000 g for 10 min). Supernatant was dried under a gentle stream of nitrogen at 45° C. and the residue was reconstituted with 100 μL of acetonitrile and vortexed. 50 μL of derivatizing agent N-tert-Butyldimethysilyl-N-methyltrifluoro-acetamide (MTBSTFA) was added to microcentrifuge tubes, vortexed, and heated at approximately 60° C. for 40 min. At the end of 40 min, the derivatized samples were analyzed via LC/MS/MS. Chromatographic analysis was performed using an Accela™ ultra high-performance system consisting of an analytical pump, and an autosampler coupled with TSQ Vantage mass spectrometer (Thermo Fisher Scientific Inc., Waltham Mass.). […] The [M+H]+ ion transitions of derivatized 2-PMPA at m/z 683.0>551.4 and that of the internal standard at m/z 669.0>537.2 were monitored with the total run time of 5 min. […]

SMILES | colon shortening of DSS-colitis mice (DSS-induced colitis; oral administration, n=5 per group, P 0.06, not statistically significant, FIG. 9) | Disease activity index (DAI) (DSS-induced colitis; DSS 2.5%, 7 days in drinking water, 2-PMPA 100 mg/kg given simultaneously, vs vehicle, P<0.05, FIG. 3) | size and weight of spleen (DSS-induced colitis; DSS-induced murine model of colitis, FIG. 5) | spleen inflammation (DSS-induced colitis; mice with DSS-colitis, FIG. 5) | PSMA activity in the colonic and cecal mucosa (PSMA) | mice with complete retraction of prolapse ([1]; 2 of the 20 IL-10 KO mice treated, 100 mg/kg for 2 weeks, FIG. 6D) [%] | disease severity (macroscopic disease, colonic hypotrophy, stool consistency) ([1]; IL-10 KO mice, 3 month old, 2-PMPA 100 mg/kg for 2 weeks, FIGS. 6A-6B) | body weight of prolapse-retracting mice ([1]; compared to untreated control IL-10 KO mice, FIG. 6C) | 2-PMPA concentration in plasma and colon [2]
CC(C)OC(=O)OCOC(=O)C(CCC(=O)O)CP(=O)(OCOC(=O)OC(C)C)OCOC(=O)OC(C)C (stereo not drawn) [Tris-POC-2-PMPA] | reversed | – | – | – | – | – | – | – | –
O=C(O)CCC(CP(=O)(O)O)C(=O)O (stereo not drawn) [2-PMPA, 2-(phosphonomethyl)-pentanedioic acid] | – | ameliorates disease activity | reduces | significantly reduced | potently inhibited | 10 | significantly reduced | increased dramatically | approximately 25 μM
